Source: patent publication US12583849B2, “KCNT1 inhibitors and methods of use” (Praxis Precision Medicines, Inc., priority 2020, dated 2026)
pIC50: −log10 of the molar value.

molecular target: T1, KCNT1 (KNa1.1, Slack) (Homo sapiens, UniProt Q5JUK3); assay: KCNT1-WT-Basal Patch Clamp Assay; format: cell-based; conditions: tetracycline inducible cell line (HEK-TREX); SyncroPatch 384PE automated patch clamp, perforated patch mode, room temperature, step from -80 mV to 0 mV
T1 construct: expressed in transfected cells; host or cells: HEK-TREX (tetracycline-inducible cell line)
T1 sequence (Q5JUK3 1-1230): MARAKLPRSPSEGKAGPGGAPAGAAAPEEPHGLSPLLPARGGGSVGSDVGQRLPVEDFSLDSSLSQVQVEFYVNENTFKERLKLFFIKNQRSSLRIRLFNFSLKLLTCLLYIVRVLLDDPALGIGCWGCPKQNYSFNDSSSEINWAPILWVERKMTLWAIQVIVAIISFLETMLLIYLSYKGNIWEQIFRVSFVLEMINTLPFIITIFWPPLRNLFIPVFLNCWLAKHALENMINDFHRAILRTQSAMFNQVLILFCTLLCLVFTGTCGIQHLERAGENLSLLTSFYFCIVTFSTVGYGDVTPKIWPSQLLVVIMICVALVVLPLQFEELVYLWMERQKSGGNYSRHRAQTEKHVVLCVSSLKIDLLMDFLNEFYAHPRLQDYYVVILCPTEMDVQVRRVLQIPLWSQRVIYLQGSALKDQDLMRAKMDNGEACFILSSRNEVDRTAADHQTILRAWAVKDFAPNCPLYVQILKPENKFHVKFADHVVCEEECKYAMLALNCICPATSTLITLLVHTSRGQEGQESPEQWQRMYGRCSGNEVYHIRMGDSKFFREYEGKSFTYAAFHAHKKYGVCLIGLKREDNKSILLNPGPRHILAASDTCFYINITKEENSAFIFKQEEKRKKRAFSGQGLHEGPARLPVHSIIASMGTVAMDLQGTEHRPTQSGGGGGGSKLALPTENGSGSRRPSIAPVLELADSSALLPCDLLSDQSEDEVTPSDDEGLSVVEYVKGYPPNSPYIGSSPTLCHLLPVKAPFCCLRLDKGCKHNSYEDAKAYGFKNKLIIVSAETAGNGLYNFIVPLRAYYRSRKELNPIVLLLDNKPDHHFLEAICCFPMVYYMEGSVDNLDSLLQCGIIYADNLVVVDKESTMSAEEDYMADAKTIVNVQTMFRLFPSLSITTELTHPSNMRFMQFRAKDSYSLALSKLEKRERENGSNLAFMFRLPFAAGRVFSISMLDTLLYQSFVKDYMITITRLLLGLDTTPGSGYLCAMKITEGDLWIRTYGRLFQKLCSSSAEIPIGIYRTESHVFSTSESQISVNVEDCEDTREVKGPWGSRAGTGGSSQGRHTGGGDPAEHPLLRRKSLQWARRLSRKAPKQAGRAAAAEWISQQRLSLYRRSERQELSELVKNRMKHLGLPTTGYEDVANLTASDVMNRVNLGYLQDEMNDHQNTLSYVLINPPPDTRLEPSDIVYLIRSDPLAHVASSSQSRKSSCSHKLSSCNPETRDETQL
How it was run: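 Tetracycline-inducible HEK-TREX cells expressing human KCNT1, recorded by automated perforated patch clamp (10 μM escin) at room temperature, with 4 mM external K+ at pH 7.4. Mean current taken during a 100 ms step from −80 mV to 0 mV, averaged over 3 sweeps. IC50 from Hill fit of % inhibition; otherwise % inhibition at top concentration.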

Compound	pIC50
C[C@H](NC(=O)C1(C)CCCCC1)c1nc(-c2ccnc(C(F)(F)F)c2)no1 [Compound I-71, 1-methyl-N-[(1S)-1-[3-[2-(trifluoromethyl)-4-pyridyl]-1,2,4-oxadiazol-5-yl]ethyl]cyclohexanecarboxamide]	≥ 6.00
Cc1c(C(=O)NC(C)c2nc(-c3cccc(F)c3)no2)nc2ccccn12 (stereo not drawn) [Compound I-49, N-[1-[3-(3-fluorophenyl)-1,2,4-oxadiazol-5-yl]ethyl]-3-methyl-imidazo[1,2-a]pyridine-2-carboxamide]	≤ 4.70
CCn1nc(C)c(C(=O)N[C@@H](C)c2nc(-c3cccc(F)c3)no2)n1 [Compound I-40, (S)-2-ethyl-N-(1-(3-(3-fluorophenyl)-1,2,4-oxadiazol-5-yl)ethyl)-5-methyl-2H-1,2,3-triazole-4-carboxamide]	4.70 to 6.00
CC[C@H](NC(=O)C1CCCCC1)c1nc(-c2ccnc(C(F)(F)F)c2)no1 [Compound I-20, (S)—N-(1-(3-(2-(trifluoromethyl)pyridin-4-yl)-1,2,4-oxadiazol-5-yl)propyl)cyclohexanecarboxamide]	≥ 6.00
C[C@H](NC(=O)c1cccc(C#N)c1)c1nc(-c2ccnc(C3CC3)c2)no1 [Compound I-88, (S)-3-cyano-N-(1-(3-(2-cyclopropylpyridin-4-yl)-1,2,4-oxadiazol-5-yl)ethyl)benzamide]	≥ 6.00
Cc1nc(C)c(C(=O)N[C@@H](C)c2nc(-c3cccc(F)c3)no2)s1 [Compound I-39, (S)—N-(1-(3-(3-fluorophenyl)-1,2,4-oxadiazol-5-yl)ethyl)-2,4-dimethylthiazole-5-carboxamide]	4.70 to 6.00
C[C@H](NC(=O)c1csc(C(F)(F)F)n1)c1nc(-c2ccnc(C(F)(F)F)c2)no1 [Compound I-10, (S)-2-(trifluoromethyl)-N-(1-(3-(2-(trifluoromethyl)pyridin-4-yl)-1,2,4-oxadiazol-5-yl)ethyl)thiazole-4-carboxamide]	≥ 6.00
C[C@H](NC(=O)c1cccc(Cl)c1)c1nc(-c2ccnc(C3CCC3)c2)no1 [Compound I-100, (S)-3-chloro-N-(1-(3-(2-cyclobutylpyridin-4-yl)-1,2,4-oxadiazol-5-yl)ethyl) benzamide]	≥ 6.00
C[C@H](NC(=O)c1ccnc(C2CC2)c1)c1nc(-c2ccnc(C3CC3)c2)no1 [Compound I-99, (S)-2-cyclopropyl-N-(1-(3-(2-cyclopropylpyridin-4-yl)-1,2,4-oxadiazol-5-yl)ethyl)isonicotinamide]	≥ 6.00
Cc1cccc(C(=O)N[C@@H](C)c2nc(-c3ccnc(C4CC4)c3)no2)c1 [Compound I-81, N-[(1S)-1-[3-(2-cyclopropyl-4-pyridyl)-1,2,4-oxadiazol-5-yl]ethyl]-3-methyl-benzamide]	≥ 6.00
C[C@H](NC(=O)c1cccc(C(F)(F)F)c1)c1nc(-c2ccnc(C3CC3)c2)no1 [Compound I-95, (S)—N-(1-(3-(2-cyclopropylpyridin-4-yl)-1,2,4-oxadiazol-5-yl)ethyl)-3-(trifluoromethyl)benzamide]	≥ 6.00
C[C@H](NC(=O)C1CCCC1)c1nc(-c2ccnc(C3CC3)c2)no1 [Compound I-105, (S)—N-(1-(3-(2-cyclopropylpyridin-4-yl)-1,2,4-oxadiazol-5-yl)ethyl)cyclopentanecarboxamide]	≥ 6.00
